Test results taken from patent publication US11780826B2 (Amgen Inc., priority 2017, dated 2023).

Each molecule was assayed on Bovine cardiac myofibrils (assay: In vitro model of dose-dependent myofibril ATPase modulation (AC1.4, pyruvate kinase/lactate dehydrogenase-coupled ATPase assay at pCa25)). Settings: concentration at which ATPase activity was 1.4-fold higher than the bottom of the dose curve, mean of a minimum of two independent tests.
Assay type: biochemical
How it was run: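 ATP turnover tracked as NADH absorbance loss at 340 nm, coupled via pyruvate kinase/lactate dehydrogenase, with 1 mM ATP, 2 mM MgCl2 and 12 mM K-PIPES at pH 6.80 (22° C) under EGTA/CaCl2 calcium buffering. Substrate was detergent-treated bovine cardiac myofibrils; 4-parameter curve fit, AC1.4 averaged over at least two runs.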

Row | SMILES | AC1.4
1 | CS(=O)(=O)c1cccc(C(=O)N2[C@@H](C(=O)N[C@@H](c3ccc(Cl)c(F)c3)C3CC3)C[C@H]3C[C@H]32)c1 [Example 485, (1R,3R,5R)-N-((R)-(4-chloro-3-fluorophenyl)(cyclopropyl)methyl)-2-(3-(methylsulfonyl)benzoyl)-2-azabicyclo[3.1.0]hexane-3-carboxamide] | 2.0445 µM
2 | O=C(NCc1ccc(C(F)(F)F)cc1)[C@H]1CCCN1C(=O)c1cccc(S(=O)(=O)N2CCC2)c1 [Example 486, 1-(3-(l-azetidinylsulfonyl)benzoyl)-N-(4-(trifluoromethyl)benzyl)-D-prolinamide] | 2.202 µM
3 | O=C(NCc1ccc(C(F)(F)F)cc1)[C@H]1CCCN1C(=O)[C@H]1CCCN(S(=O)(=O)N2CC(NC(=O)C(F)(F)F)C2)C1 [Example 489, 1-(((3S)-1-((3-((trifluoroacetyl)amino)-1-azetidinyl)sulfonyl)-3-piperidinyl)carbonyl)-N-(4-(trifluoromethyl)benzyl)-D-prolinamide] | 2.2325 µM
4 | O=C(N[C@@H](c1ccc(C(F)(F)F)c(F)c1)C1CC1)[C@H]1C[C@H]2C[C@H]2N1C(=O)c1cncc(S(=O)(=O)C2CC2)c1 [Example 491, (1R,3R,5R)-N-((R)-cyclopropyl(3-fluoro-4-(trifluoromethyl)phenyl)methyl)-2-((5-(cyclopropylsulfonyl)-3-pyridinyl)carbonyl)-2-azabicyclo[3.1.0]hexane-3-carboxamide] | 2.181 µM
5 | COC1CN(S(=O)(=O)N2CCC[C@H](C(=O)N3CCC[C@@H]3C(=O)NCc3ccc(C(F)(F)F)cc3)C2)C1 [Example 492, 1-(((3S)-1-((3-methoxy-1-azetidinyl)sulfonyl)-3-piperidinyl)carbonyl)-N-(4-(trifluoromethyl)benzyl)-D-prolinamide] | 2.256 µM
6 | C[C@@H](NC(=O)[C@H]1C[C@H](F)CN1C(=O)[C@H]1CCCN(S(=O)(=O)N2CC(C#N)C2)C1)c1cccc(C(F)(F)F)c1 [Example 494, (2R,4S)-1-((S)-1-((3-cyanoazetidin-1-yl)sulfonyl)piperidine-3-carbonyl)-4-fluoro-N-((R)-1-(3-(trifluoromethyl)phenyl)ethyl)pyrrolidine-2-carboxamide] | 2.274 µM
7 | N#CC1CN(S(=O)(=O)N2CCC[C@H](C(=O)N3CCC[C@@H]3C(=O)NCc3cccc(F)c3)C2)C1 [Example 496, 1-(((3S)-1-((3-cyano-1-azetidinyl)sulfonyl)-3-piperidinyl)carbonyl)-N-(3-fluorobenzyl)-D-prolinamide] | 2.291 µM
8 | Cc1cc(F)cc(CNC(=O)[C@H]2CCCN2C(=O)[C@H]2CCCN(S(=O)(=O)N3CC(C#N)C3)C2)c1 [Example 498, 1-(((3S)-1-((3-cyano-1-azetidinyl)sulfonyl)-3-piperidinyl)carbonyl)-N-(3-fluoro-5-methylbenzyl)-D-prolinamide] | 2.335 µM
9 | CS(=O)(=O)C1CN(S(=O)(=O)N2CCC[C@H](C(=O)N3CCC[C@@H]3C(=O)NCc3ccc(C(F)(F)F)cn3)C2)C1 [Example 499, 1-(((3S)-1-((3-(methylsulfonyl)-1-azetidinyl)sulfonyl)-3-piperidinyl)carbonyl)-N-((5-(trifluoromethyl)-2-pyridinyl)methyl)-D-prolinamide] | 2.344 µM
10 | N#CC1CN(S(=O)(=O)N2CCC[C@H](C(=O)N3CCC[C@@H]3C(=O)NC3CCOc4ccccc43)C2)C1 (stereo partly drawn) [Example 502, (2R)-N-(chroman-4-yl)-1-((S)-1-((3-cyanoazetidin-l-yl)sulfonyl)piperidine-3-carbonyl)pyrrolidine-2-carboxamide] | 2.3515 µM
11 | N#CC1CN(S(=O)(=O)N2CC(C(=O)N3CCC[C@@H]3C(=O)NCc3ccc(C(F)(F)F)cc3)C3CC32)C1 (stereo partly drawn) [Example 503, (2R)-1-(2-((3-cyanoazetidin-1-yl)sulfonyl)-2-azabicyclo[3.1.0]hexane-4-carbonyl)-N-(4-(trifluoromethyl)benzyl)pyrrolidine-2-carboxamide] | 2.3565 µM

The remaining lines, values ahead:

Row | AC1.4 | SMILES
12 | 2.218 µM | O=C(N[C@@H](c1cc(F)c(Cl)cc1F)C1COC1)[C@H]1C[C@H]2C[C@H]2N1C(=O)c1cc(C(F)(F)F)ncn1 [Example 487, (1R,3R,5R)-N-((R)-(4-chloro-2,5-difluorophenyl)(3-oxetanyl)methyl)-2-((6-(trifluoromethyl)-4-pyrimidinyl)carbonyl)-2-azabicyclo[3.1.0]hexane-3-carboxamide]
13 | 2.1245 µM | CS(=O)(=O)c1cncc(C(=O)N2C[C@@H](F)C[C@@H]2C(=O)N[C@@H](c2cc(F)c(Cl)cc2F)C2CC2)c1 [Example 488, (4S)-N-((R)-(4-chloro-2,5-difluorophenyl)(cyclopropyl)methyl)-4-fluoro-1-((5-(methylsulfonyl)-3-pyridinyl)carbonyl)-D-prolinamide]
14 | 2.1625 µM | CS(=O)(=O)c1ccc(C(=O)N2[C@@H](C(=O)N[C@@H](c3ccc(C(F)(F)F)cc3F)C3CC3)C[C@H]3C[C@H]32)cn1 [Example 490, (1R,3R,5R)-N-((R)-cyclopropyl(2-fluoro-4-(trifluoromethyl)phenyl)methyl)-2-((6-(methylsulfonyl)-3-pyridinyl)carbonyl)-2-azabicyclo[3.1.0]hexane-3-carboxamide]
15 | 2.271 µM | O=C(O[C@@H]1C[C@H](C(=O)N[C@@H](c2cc(F)c(Cl)cc2F)C2COC2)N(C(=O)c2ccnc(C(F)(F)F)c2)C1)c1ccnc(C(F)(F)F)c1 [Example 493, (3R,5R)-5-(((R)-(4-chloro-2,5-difluorophenyl)(3-oxetanyl)methyl)carbamoyl)-1-((2-(trifluoromethyl)-4-pyridinyl)carbonyl)-3-pyrrolidinyl2-(trifluoromethyl)-4-pyridinecarboxylate]
16 | 2.278 µM | O=C(N[C@@H](c1ccc(C(F)(F)F)cc1F)C1CC1)[C@H]1C[C@H]2C[C@H]2N1C(=O)c1ccnc(C(F)(F)F)c1 [Example 495, (1R,3R,5R)-N-((R)-cyclopropyl(2-fluoro-4-(trifluoromethyl)phenyl)methyl)-2-((2-(trifluoromethyl)-4-pyridinyl)carbonyl)-2-azabicyclo[3.1.0]hexane-3-carboxamide]
17 | 2.3075 µM | CC(C)(C(N)=O)c1cccc(C(=O)N2[C@@H](C(=O)N[C@@H](c3ccc(C(F)(F)F)cc3F)C3COC3)C[C@H]3C[C@H]32)c1 [Example 497, (1R,3R,5R)-2-(3-(1-amino-2-methyl-1-oxopropan-2-yl)benzoyl)-N—((R)-(2-fluoro-4-(trifluoromethyl)phenyl)(oxetan-3-yl)methyl)-2-azabicyclo[3.1.0]hexane-3-carboxamide]
18 | 2.346 µM | O=C(N[C@@H](c1cc(F)c(Cl)cc1F)C1COC1)[C@H]1C[C@H]2C[C@H]2N1C(=O)c1ccnc(C(F)(F)F)n1 [Example 500, (1R,3R,5R)-N-((R)-(4-chloro-2,5-difluorophenyl)(3-oxetanyl)methyl)-2-((2-(trifluoromethyl)-4-pyrimidinyl)carbonyl)-2-azabicyclo[3.1.0]hexane-3-carboxamide]
19 | 2.3495 µM | O=C(N[C@@H](c1cc(F)c(Cl)cc1F)C1COC1)[C@H]1C[C@@H](O)CN1C(=O)c1ccnc(C(F)F)c1 [Example 501, (4R)-N-((R)-(4-chloro-2,5-difluorophenyl)(3-oxetanyl)methyl)-1-((2-(difluoromethyl)-4-pyridinyl)carbonyl)-4-hydroxy-D-prolinamide]
